The target in this assay is T1, Human tyrosinase (Homo sapiens, UniProt P14679).
T1 construct: Normal human melanocytes (originating from abdominal plasty) are sown in a 24-well plate; endogenous in cells; host or cells: normal human melanocytes from abdominal plasty; donors of light, brown and black phototype
T1 sequence (P14679 19-529): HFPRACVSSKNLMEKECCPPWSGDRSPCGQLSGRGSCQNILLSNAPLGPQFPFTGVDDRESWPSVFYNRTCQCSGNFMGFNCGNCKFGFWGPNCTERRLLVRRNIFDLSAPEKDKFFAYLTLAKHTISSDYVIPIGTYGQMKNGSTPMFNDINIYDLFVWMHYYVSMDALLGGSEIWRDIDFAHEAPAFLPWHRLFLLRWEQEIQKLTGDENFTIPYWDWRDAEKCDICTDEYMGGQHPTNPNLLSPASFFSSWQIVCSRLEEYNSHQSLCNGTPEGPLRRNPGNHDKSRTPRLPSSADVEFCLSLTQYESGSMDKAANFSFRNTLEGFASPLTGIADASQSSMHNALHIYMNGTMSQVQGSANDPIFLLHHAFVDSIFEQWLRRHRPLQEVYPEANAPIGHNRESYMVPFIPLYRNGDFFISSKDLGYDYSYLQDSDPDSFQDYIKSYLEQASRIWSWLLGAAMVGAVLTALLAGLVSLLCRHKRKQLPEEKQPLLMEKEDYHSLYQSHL
Briefly: Inhibition of human tyrosinase in a monolayer after 24 h application of the actives on normal human melanocytes (MBTH/L-Dopa, OD 490 nm/protein). It is filed as cell-based. To be noted: for inhibition at 100 µM / inhibition at 10 µM: read-out: Inhibition of human tyrosinase after application on normal human melanocytes, percentage inhibition. On the procedure:
Normal human melanocytes (originating from abdominal plasty) are sown in a 24-well plate at the rate of 80,000 cells per well. They are cultivated up to confluence and the actives are applied for 24 hours in the culture media. After 24 hours, the media are removed and the melanocytes are picked up by mechanical action. An extraction is made by heat shock and the supernatants are then recovered and then incubated with MBTH (Sigma) and L-Dopa (Sigma).
The compound obtained in Example 9b was tested on melanocytes originating from various donors but of light phototypes according to the method described in Example 15. […] Table 6 : Inhibition of tyrosinase by compound 9b on 4 different donors.
The compound obtained in Example 9b is tested on cultures of melanocytes originating from 2 donors of brown phototypes and from one donor of negroid phototype. The method applied is that described in Example 15.
A study is made with molecules known in the literature for their depigmenting activity. These molecules are applied to the model described in Example 15 so as to compare their efficiency with respect to the aurones described above.

Like-named read-outs stand apart in the source and are kept apart here.

With `O=c1cc(-c2ccc(O)cc2)oc2cc(O)cc(O)c12` [Apigenin, reference compound], under “10^-4M, 24 hours”, the inhibition at 100 µM is -59.1 ± 23%. Moreover, the inhibition at 10 µM (10^-5M, 24 hours) is -40.8 ± 7.68%.

Turning to `O=c1cc(-c2ccccc2)oc2cc(O)cc(O)c12` [Chrysin, reference compound], for the setting “10^-5M, 24 hours”, the inhibition at 10 µM is -6.1 ± 22.9%.

On to `CCc1ccc(/C=C2\Oc3cc(O)ccc3C2=O)cc1` [Example 3a, (Z)-2-(4'-Ethyl)Benzylidene-6-Hydroxybenzofuran-3(2H)-one], for which, where the note is “10^-4M, 24 hours”, the inhibition at 100 µM is 0%. Moreover, the inhibition at 10 µM (10^-5M, 24 hours) amounted to 23.9%.

With `CCc1ccccc1/C=C1\Oc2cc(O)ccc2C1=O` [Example 3b, (Z)-2-(2'-Ethyl)Benzylidene-6-Hydroxybenzofuran-3(2H)-one], the inhibition at 100 µM (10^-4M, 24 hours) turned out to be 0%. The inhibition at 10 µM (10^-5M, 24 hours) came out at 0%.

`COc1cc(OC)c2c(c1)O/C(=C\c1ccc(S(=O)(=O)O)cc1)C2=O` [Example 5e, (Z)-4,6-dimethoxy-2-(4'-sulfonatebenzylidene)benzofuran-3(2H)-one]: the inhibition at 100 µM (10^-4M, 24 hours) was 0%. In addition, for the setting “10^-5M, 24 hours”, the inhibition at 10 µM amounted to 1.44%.

In the case of `COc1cc(OC)c2c(c1)O/C(=C\c1ccc(S(=O)(=O)O)cc1S(=O)(=O)O)C2=O` [Example 5f, (Z)-4,6-dimethoxy-2-(2',4'-disulfonatebenzylidene)benzofuran-3(2H)-one], the inhibition at 100 µM (10^-4M, 24 hours) came out at 9.36%. Besides, the inhibition at 10 µM (10^-5M, 24 hours) was 2.88%.

In the case of `COc1cc(OC)c2c(c1)O/C(=C\c1ccco1)C2=O` [Example 5m, (Z)-4,6-Dimethoxy-2-[(furan)methylene]benzofuran-3(2H)-one], the inhibition at 100 µM (10^-4M, 24 hours) was determined as 19.5%. Also, the inhibition at 10 µM (10^-5M, 24 hours) came to 6.4%.

As for `CCc1ccc(/C=C2\Oc3cc(OC)cc(OC)c3C2=O)o1` [Example 5n, (Z)-4,6-Dimethoxy-2-[(5-ethylfuran)methylene]benzofuran-3(2H)-one], the inhibition at 100 µM (10^-4M, 24 hours) was 7.8%. In addition, the inhibition at 10 µM (10^-5M, 24 hours) worked out at 0%.

Turning to `COc1cc(OC)c2c(c1)O/C(=C\c1cc(C)c(C)o1)C2=O` [Example 5o, (Z)-4,6-Dimethoxy-2-[(4,5-dimethylfuran)methylene]benzofuran-3(2H)-one], under “10^-4M, 24 hours”, the inhibition at 100 µM was 23.2%. Further, the inhibition at 10 µM (10^-5M, 24 hours) worked out at 12.1%.

`COc1cc(OC)c2c(c1)O/C(=C\c1cccs1)C2=O` [Example 5p, (Z)-4,6-Dimethoxy-2-[(thiophene)methylene]benzofuran-3(2H)-one]: the inhibition at 100 µM (10^-4M, 24 hours) amounted to 31.3%. Besides, the inhibition at 10 µM (10^-5M, 24 hours) is 6.4%.

In the case of `COc1cc(OC)c2c(c1)O/C(=C\c1ccc(C)s1)C2=O` [Example 5q, (Z)-4,6-Dimethoxy-2-[(5-methylthiophene)methylene]benzofuran-3(2H)-one], the inhibition at 100 µM (10^-4M, 24 hours) was 4.8%. Also, the inhibition at 10 µM (10^-5M, 24 hours) is 0%.

`CCc1ccc(/C=C2\Oc3cc(OC)cc(OC)c3C2=O)s1` [Example 5r, (Z)-4,6-Dimethoxy-2-[(5-ethylthiophene)methylene]benzofuran-3(2H)-one]: the inhibition at 100 µM (10^-4M, 24 hours) is 11.9%. Where the note is “10^-5M, 24 hours”, the inhibition at 10 µM came out at 2.1%.

In the case of `COc1cc(OC)c2c(c1)O/C(=C\c1ccc[nH]1)C2=O` [Example 5s, (Z)-4,6-Dimethoxy-2-[(pyrrole)methylene]benzofuran-3(2H)-one], the inhibition at 10 µM was 0% and the inhibition at 100 µM was 13.7%.

For the compound `COc1cc(OC)c2c(c1)O/C(=C\c1[nH]c(C)cc1C)C2=O` [Example 5t, (Z)-4,6-Dimethoxy-2-[(3,5-dimethylpyrrole)methylene]benzofuran-3(2H)-one], where the note is “10^-4M, 24 hours”, the inhibition at 100 µM amounted to 5.1%. Besides, the inhibition at 10 µM (10^-5M, 24 hours) was 0%.

In the case of `O=C1/C(=C/c2ccccc2)Oc2cc(O)cc(O)c21` [Example 7, (Z)-2-Benzylidene-(4,6-dihydroxy) benzofuran-3(2H)-one], for the setting “10^-4M, 24 hours”, the “Inhibition of human tyrosinase after application on normal human melanocytes, percentage inhibition” value stood at 3.37 ± 4.8% and the inhibition at 100 µM was 3.37%. Further, under “10^-5M, 24 hours”, the “Inhibition of human tyrosinase after application on normal human melanocytes, percentage inhibition” value is given as 34.85 ± 3.04% and the inhibition at 10 µM amounted to 34.9%.

With `O=C1/C(=C/c2ccc(S(=O)(=O)O)cc2)Oc2cc(O)cc(O)c21` [Example 7e], the inhibition at 100 µM (10^-4M, 24 hours) was found to be 0%. Also, the inhibition at 10 µM (10^-5M, 24 hours) is 4.83%.

Consider `CCCc1ccc(/C=C2\Oc3cc(O)cc(O)c3C2=O)cc1` [Example 7h], for which the inhibition at 100 µM (10^-4M, 24 hours) came to 5.43%. Moreover, the inhibition at 10 µM (10^-5M, 24 hours) stood at 26.9%.

In the case of `CC(C)c1ccc(/C=C2\Oc3cc(O)cc(O)c3C2=O)cc1` [Example 7i], the inhibition at 100 µM (10^-4M, 24 hours) is 0%. The inhibition at 10 µM (10^-5M, 24 hours) worked out at 31.9%.

Take `CC(C)(C)c1ccc(/C=C2\Oc3cc(O)cc(O)c3C2=O)cc1` [Example 7k]: the inhibition at 100 µM (10^-4M, 24 hours) was 0%. Besides, the inhibition at 10 µM (10^-5M, 24 hours) was determined as 25.1%.

Turning to `CCc1ccccc1/C=C1\Oc2cc(O)cc(O)c2C1=O` [Example 7l], the inhibition at 100 µM (10^-4M, 24 hours) was determined as 0%. For the same compound, under “10^-5M, 24 hours”, the inhibition at 10 µM amounted to 6.1%.

As for `O=C1/C(=C/c2ccco2)Oc2cc(O)cc(O)c21` [Example 7m, (Z)-4,6-Dihydroxy-2-[(furan)methylene]benzofuran-3(2H)-one], under “10^-4M, 24 hours”, the inhibition at 100 µM is 23.6%. Besides, where the note is “10^-5M, 24 hours”, the inhibition at 10 µM worked out at 6.4%.

Regarding `CCc1ccc(/C=C2\Oc3cc(O)cc(O)c3C2=O)o1` [Example 7n, (Z)-4,6-Dihydroxy-2-[(5-ethylfuran)methylene]benzofuran-3(2H)-one], the inhibition at 100 µM (10^-4M, 24 hours) was 28.5%. Further, the inhibition at 10 µM (10^-5M, 24 hours) was found to be 13.4%.

Take `Cc1cc(/C=C2\Oc3cc(O)cc(O)c3C2=O)oc1C` [Example 7o, (Z)-4,6-Dihydroxy-2-[(4,5-dimethylfuran)methylene]benzofuran-3(2H)-one]: where the note is “10^-4M, 24 hours”, the inhibition at 100 µM was 13.6%. The inhibition at 10 µM (10^-5M, 24 hours) amounted to 4.5%.

Turning to `O=C1/C(=C/c2cccs2)Oc2cc(O)cc(O)c21` [Example 7p, (Z)-4,6-Dihydroxy-2-[(thiophene)methylene]benzofuran-3(2H)-one], the inhibition at 100 µM (10^-4M, 24 hours) turned out to be 35.2%. Where the note is “10^-5M, 24 hours”, the inhibition at 10 µM stood at 15.3%.

Turning to `Cc1ccc(/C=C2\Oc3cc(O)cc(O)c3C2=O)s1` [Example 7q, (Z)-4,6-Dihydroxy-2-[(5-methylthiophene)methylene]benzofuran-3(2H)-one], the inhibition at 100 µM (10^-4M, 24 hours) worked out at 16.4%. Besides, the inhibition at 10 µM (10^-5M, 24 hours) was found to be 7%.

For the compound `CCc1ccc(/C=C2\Oc3cc(O)cc(O)c3C2=O)s1` [Example 7r, (Z)-4,6-Dihydroxy-2-[(5-ethylthiophene)methylene]benzofuran-3(2H)-one], the inhibition at 100 µM (10^-4M, 24 hours) is 13.8%. Besides, the inhibition at 10 µM (10^-5M, 24 hours) came to 0%.

Take `O=C1/C(=C/c2ccc[nH]2)Oc2cc(O)cc(O)c21` [Example 7s, (Z)-4,6-Dihydroxy-2-[(pyrrole)methylene]benzofuran-3(2H)-one]: the inhibition at 10 µM worked out at 9.1% and the inhibition at 100 µM worked out at 22.8%.

For the compound `Cc1cc(C)c(/C=C2\Oc3cc(O)cc(O)c3C2=O)[nH]1` [Example 7t, (Z)-4,6-Dihydroxy-2-[(3,5-dimethylpyrrole)methylene]benzofuran-3(2H)-one], the inhibition at 100 µM (10^-4M, 24 hours) was determined as 26.4%. Also, the inhibition at 10 µM (10^-5M, 24 hours) came to 0%.

For `COc1ccc(/C=C2\Oc3cc(O)cc(O)c3C2=O)cc1` [Example 9, (Z)-4,6-Dihydroxy-2-(4-methoxybenzylidene)benzofuran-3(2H)-one], the inhibition at 100 µM (10^-4M, 24 hours) was determined as 10.7%. In addition, for the setting “10^-5M, 24 hours”, the inhibition at 10 µM was 14.1%.

The inhibition is the change of the read-out against control, counted positive when it falls.

Values taken from patent EP1709964A2, “A method of cosmetic depigmentation care by applying at least one aurone” (ENGELHARD LYON, priority 2005, dated 2006).
